The values below come from patent publication US11191769B2, “Fused thiophene compounds” (BioTheryX, Inc., priority 2018, dated 2021).

Assay type in all cases: cell-based
In test [1] the target is T1, GSPT1 (Homo sapiens, UniProt P15170+Q96SW2).
T1 construct: Whole cell extracts were prepared using RIPA buffer; endogenous in cells; host or cells: MV-4-11
The test is described as follows: GSPT1 degradation assay (Western blot, MV-4-11 cells). The following applies: 6-8 hours. The protocol:
(§1) MV-4-11 cells were grown in RPMI 1640 media supplemented with 10% fetal bovine serum, streptomycin and penicillin.
(§2) Cells were cultured at approximately 10^6 cells per mL and incubated in DMSO or the indicated compound for 6-8 hours. Whole cell extracts were prepared using RIPA buffer according to manufacturer's protocol (Pierce). Briefly, 3×10^6 cells were washed once in PBS, the cell pellets were resuspended in RIPA buffer and allowed to incubate for 15 minutes on ice. Cells debris was removed by centrifugation and the cleared whole cell lysates were transferred to new tubes for further analysis.
(§3) For Western blot analysis, whole cell protein extracts were separated on 4-12% SDS-polyacrylamide gels, transferred to nitrocellulose and probed with the indicated primary antibodies. Membranes were subsequently washed and probed with the appropriate IRDye secondary antibodies (LI-COR). The signal was detected using the Odyssey Imaging System (LI-COR).
(§4) The following antibodies were used in these studies: Anti-eRF3/GSPT1: Abcam, ab126090 (Cambridge, Mass.); Anti-Ikaros: Abcam, ab191394 (Cambridge, Mass.); Anti-CK1α: Abcam, ab108296 (Cambridge, Mass.); β-actin (8H10D10) mouse monoclonal antibody: Cell Signaling Technology, #3700 (Danvers, Mass.); IRDye 680RD Goat anti-rabbit antibody: LI-COR, 926-68071 (Lincoln, Nebr.); IRDye 800CW Goat anti-mouse antibody: LI-COR, 926-32210 (Lincoln, Nebr.).
(§5) In each of Tables 1-4, the % degradation values are reported as “A”, “B”, “C”, or “D”. “A” represents a % degradation value of less than 25% (value<25%). “B” represents a % degradation value of equal to or more than 25% and less than 50% (25%≤value<50%). “C” represents a % degradation value of equal to or more than 50% and less than 75% (50%≤value <75%). “D” represents a % degradation value of equal to or more than 75% (value≥75%).

Test [2] concerns the target T2, CK1α (Homo sapiens, UniProt P48729+Q96SW2).
T2 construct: Whole cell extracts were prepared using RIPA buffer; endogenous in cells; host or cells: MV-4-11
The test is described as follows: CK1α degradation assay (Western blot, MV-4-11 cells). To be noted: MV4-11, 6-8 hours. Here is the method:
as §1, §2, §3, §4, §5

The test system of test [3] is MOLM-13 cells. The test is described as follows: MOLM-13 cell viability assay (CellTiter-Glo). To be noted: Homo sapiens, MOLM-13, 72 h, 3 days, % of DMSO control. The protocol:
MOLM-13 cells were cultured in RPMI 1640 media supplemented with 10% fetal bovine serum, streptomycin and penicillin, and were plated in white walled 96-well plates at 2500 cells/well. Cells were incubated in DMSO (control) or the indicated compound for 3 days at 37° C. and 5% CO2. Following the incubation period, 100 μL of CellTiterGlow (CTG) reagent (CellTiter-Glo® Luminescent Cell Viability Assay, Promega (Madison, Wis.)) was added to each well. Following a 10 minutes incubation with shaking, luminescence was measured using the EnVision Multimode plate reader.
The MOLM-13 cell viability values as % DMSO are reported as “A”, “B”, “C”, or “D”. “A” represents a % viability value of less than 25% (value<25%). “B” represents a % viability value of equal to or more than 25% and less than 50% (25%≤value<50%). “C” represents a % viability value of equal to or more than 50% and less than 75% (50%≤value<75%). “D” represents a % viability value of equal or more than 75% (value≥75%).

In test [4] the test system is IL-6. The test is described as follows: IL-6 inhibition assay, LPS-induced PBMCs or CD14+ monocytes, Meso Scale. To be noted: 1 h pretreatment, 100 ng/mL LPS 18-24 h, supernatant. The protocol:
(§6) Either frozen primary blood mononuclear cells (PBMCs) or frozen CD14+ mobilized peripheral blood monocytes were purchased from AllCells (PB003F, Normal Peripheral Blood MNC (Alameda, Calif.)). Cells were quick thawed, washed 1-time with RPMI-1640 (10% FBS/1% Pen-Strep) and plated in 96 well plates at 200,000 cells per well. Cells were pretreated with DMSO only or with the indicated compound for 1 h and then induced with 100 ng/mL lipopolysaccharide (LPS) for 18-24 h. The supernatant was analyzed for IL-1β, IL-6, and TNFα, using Meso Scale assay according to manufacturer's protocol. The negative control wells were treated with DMSO.
(§7) In each of Tables 5-7, the % inhibition values are reported as “A”, “B”, “C”, or “D”. “A” represents a % inhibition value of less than 50% (value <50%). “B” represents a % inhibition value of equal to or more than 50% and less than 70% (50%≤value<70%). “C” represents a % inhibition value of equal to or more than 70% and less than 90% (70%≤value<90%). “D” represents a % inhibition value of equal or more than 90% (value≥90%). In Table 8, the fold-change values are reported as “A”, “B”, “C”, or “D”. “A” represents a fold-change value of equal to or less than 1 (value≤1). “B” represents a fold-change value of more than 1 and equal to or less than 2 (1<value≤2). “C” represents a fold-change value of more than 2 and equal to or less than 3 (2<value≤3). “D” represents a fold-change value of more than 3 (value>3).

For test [5], the system named is IL-2. The experiment in a line: IL-2 fold-change assay, anti-CD3 stimulated PBMCs, Mesoscale. To be noted: PBMC, PBMCs on anti-human CD3 (OKT3) coated plates, 24 h, fold difference from the DMSO control. Here is the method:
For the IL-2 analysis, 96 well plates were precoated with 1 μg/mL anti-human CD3 antibody (OKT3, eBioscience Inc., San Diego, Calif.). After washing with PBS, the indicated compound was added (50 μL/well) followed by PBMCs diluted at 3-4 million cells/mL (150 μL/well). Plates were incubated for 24 h and the supernatants collected for Mesoscale IL-2 analysis. IL-2 activity is measured as fold difference from the DMSO control.
as §7

Test [6] concerns the target T3, IKAROS (Homo sapiens, UniProt Q13422+Q96SW2).
T3 construct: endogenous in cells; host or cells: MV-4-11
The test is described as follows: IKAROS degradation assay (Western blot, MV-4-11 cells). To be noted: 6-8 hours; for IKAROS % degradation at 1 µM: MV4-11, 1 μM. Here is the method: as §1, §2, §3, §4, §5

Test [7] concerns IL-1β. The experiment in a line: IL-1β inhibition assay, LPS-induced PBMCs or CD14+ monocytes, Meso Scale. The following applies: 1 h pretreatment, 100 ng/mL LPS 18-24 h, supernatant, read-out: I1-1β % Inhibition at 10 μM. Here is the method:
as §6, §7

Test [8] relates to TNFα. The experiment in a line: TNF-α inhibition assay, LPS-induced PBMCs or CD14+ monocytes, Meso Scale. The following applies: 1 h pretreatment, 100 ng/mL LPS 18-24 h, supernatant. The protocol:
as §6, §7

T3 sequence (Q13422 whole entry): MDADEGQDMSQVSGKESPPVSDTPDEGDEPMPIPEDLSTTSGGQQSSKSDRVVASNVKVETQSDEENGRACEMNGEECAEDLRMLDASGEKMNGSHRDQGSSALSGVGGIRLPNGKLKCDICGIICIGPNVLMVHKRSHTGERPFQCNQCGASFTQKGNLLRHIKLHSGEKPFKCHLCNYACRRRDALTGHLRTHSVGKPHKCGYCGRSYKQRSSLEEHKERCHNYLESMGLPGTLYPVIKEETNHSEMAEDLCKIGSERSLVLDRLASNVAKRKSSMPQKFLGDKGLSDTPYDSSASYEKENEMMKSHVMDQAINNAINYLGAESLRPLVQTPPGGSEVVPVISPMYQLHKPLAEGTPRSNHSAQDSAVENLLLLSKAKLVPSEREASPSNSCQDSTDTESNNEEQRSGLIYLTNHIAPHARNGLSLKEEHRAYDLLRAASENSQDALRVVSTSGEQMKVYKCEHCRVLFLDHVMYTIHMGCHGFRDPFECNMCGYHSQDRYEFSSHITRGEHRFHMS
T3 sequence (Q96SW2 whole entry): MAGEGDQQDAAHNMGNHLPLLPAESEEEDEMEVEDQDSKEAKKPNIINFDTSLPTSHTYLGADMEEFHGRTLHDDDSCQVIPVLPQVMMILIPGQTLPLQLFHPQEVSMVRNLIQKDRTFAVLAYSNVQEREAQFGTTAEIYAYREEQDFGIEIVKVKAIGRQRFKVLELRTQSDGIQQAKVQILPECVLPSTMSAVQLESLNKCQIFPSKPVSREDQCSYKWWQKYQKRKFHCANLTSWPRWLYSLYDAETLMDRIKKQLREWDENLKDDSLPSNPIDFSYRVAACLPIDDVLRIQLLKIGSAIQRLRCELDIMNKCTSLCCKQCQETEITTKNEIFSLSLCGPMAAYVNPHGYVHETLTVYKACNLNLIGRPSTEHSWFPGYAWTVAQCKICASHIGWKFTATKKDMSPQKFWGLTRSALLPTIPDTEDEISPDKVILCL
T3 sequence (Q16531 whole entry partner): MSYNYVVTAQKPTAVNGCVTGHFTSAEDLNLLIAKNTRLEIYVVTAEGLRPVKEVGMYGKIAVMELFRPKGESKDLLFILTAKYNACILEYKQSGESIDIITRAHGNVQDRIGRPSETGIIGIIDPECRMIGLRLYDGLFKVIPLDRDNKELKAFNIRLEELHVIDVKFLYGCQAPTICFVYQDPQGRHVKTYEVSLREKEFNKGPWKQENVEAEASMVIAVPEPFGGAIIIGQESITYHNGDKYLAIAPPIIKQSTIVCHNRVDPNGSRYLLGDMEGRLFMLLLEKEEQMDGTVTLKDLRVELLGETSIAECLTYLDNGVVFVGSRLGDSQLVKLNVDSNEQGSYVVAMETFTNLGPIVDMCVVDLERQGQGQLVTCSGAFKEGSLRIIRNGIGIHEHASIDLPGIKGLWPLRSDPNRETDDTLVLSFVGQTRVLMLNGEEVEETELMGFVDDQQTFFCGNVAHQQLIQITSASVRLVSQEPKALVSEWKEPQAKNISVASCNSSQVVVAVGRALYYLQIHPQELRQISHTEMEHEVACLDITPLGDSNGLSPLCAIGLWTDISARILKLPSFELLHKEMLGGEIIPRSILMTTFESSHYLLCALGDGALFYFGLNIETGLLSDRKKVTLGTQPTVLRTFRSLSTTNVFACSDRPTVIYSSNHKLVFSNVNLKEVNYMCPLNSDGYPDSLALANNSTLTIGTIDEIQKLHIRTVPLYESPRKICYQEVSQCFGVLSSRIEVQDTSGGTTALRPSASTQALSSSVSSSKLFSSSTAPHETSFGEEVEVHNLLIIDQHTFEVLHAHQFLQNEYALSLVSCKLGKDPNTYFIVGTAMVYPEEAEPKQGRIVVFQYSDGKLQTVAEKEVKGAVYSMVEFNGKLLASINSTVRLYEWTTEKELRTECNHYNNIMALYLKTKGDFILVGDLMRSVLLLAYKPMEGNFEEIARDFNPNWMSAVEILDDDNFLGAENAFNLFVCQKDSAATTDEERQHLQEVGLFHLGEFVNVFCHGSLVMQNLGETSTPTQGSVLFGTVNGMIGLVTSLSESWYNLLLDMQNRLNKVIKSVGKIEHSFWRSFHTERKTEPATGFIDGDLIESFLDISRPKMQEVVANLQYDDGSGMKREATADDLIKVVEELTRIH
T1 sequence (P15170 whole entry): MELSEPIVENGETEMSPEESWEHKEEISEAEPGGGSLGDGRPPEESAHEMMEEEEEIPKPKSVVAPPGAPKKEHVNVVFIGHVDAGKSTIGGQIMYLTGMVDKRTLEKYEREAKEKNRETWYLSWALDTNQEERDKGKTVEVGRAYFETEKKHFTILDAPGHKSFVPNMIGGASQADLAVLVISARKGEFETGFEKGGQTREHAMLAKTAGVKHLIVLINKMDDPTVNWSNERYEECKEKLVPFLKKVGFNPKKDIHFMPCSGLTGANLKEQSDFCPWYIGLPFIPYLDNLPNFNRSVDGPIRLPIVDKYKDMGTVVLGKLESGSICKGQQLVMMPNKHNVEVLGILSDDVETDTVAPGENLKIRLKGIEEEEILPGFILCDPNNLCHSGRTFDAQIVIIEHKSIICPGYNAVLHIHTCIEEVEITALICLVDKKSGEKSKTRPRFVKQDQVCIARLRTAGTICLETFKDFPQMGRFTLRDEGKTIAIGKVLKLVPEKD
T1 sequence (Q96SW2 whole entry): as the sequence (Q96SW2 whole entry) above
T1 sequence (Q16531 whole entry partner): as the sequence (Q16531 whole entry partner) above
T2 sequence (P48729 whole entry): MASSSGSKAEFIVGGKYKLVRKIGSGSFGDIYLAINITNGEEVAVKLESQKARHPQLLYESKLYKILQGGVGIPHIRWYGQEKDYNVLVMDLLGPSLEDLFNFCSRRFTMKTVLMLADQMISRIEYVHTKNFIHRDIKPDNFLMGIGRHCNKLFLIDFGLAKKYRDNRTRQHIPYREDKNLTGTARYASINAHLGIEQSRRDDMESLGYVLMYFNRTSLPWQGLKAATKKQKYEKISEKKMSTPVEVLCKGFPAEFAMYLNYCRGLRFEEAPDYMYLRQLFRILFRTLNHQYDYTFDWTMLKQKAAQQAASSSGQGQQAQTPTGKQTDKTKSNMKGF
T2 sequence (Q96SW2 whole entry): as the sequence (Q96SW2 whole entry) above
T2 sequence (Q16531 whole entry partner): as the sequence (Q16531 whole entry partner) above

In the case of `O=C1CC[C@H](N2Cc3c(csc3COc3ccc(CN4CCOCC4)cc3)C2=O)C(=O)N1` [Compound 1, (S)-3-(1-((4-(morpholinomethyl)phenoxy)methyl)-4-oxo-4H-thieno[3,4-c]pyrrol-5(6H)-yl)piperidine-2,6-dione], the “GSPT1 % Degradation at 1 μM” value in test [1] is “C (“C” represents a % degradation value of equal to or more than 50% and less than 75% (50%≤value <75%))”. In test [2], this compound showed a percent degradation at 1 µM not below 75%. Moreover, the viability at 10 µM in test [3] was 50 to 75%. Besides, the figures for the inhibition at 10 µM in test [4] and in test [7] were 50 to 70% and more than 90%, respectively. The compound further returned a fold induction at 10 µM in test [5] of 1 to 2. Besides, the IKAROS % degradation at 1 µM in test [6] was not below 75%.

On to `O=C1CC[C@H](N2Cc3c(OCc4ccc(CN5CCOCC5)cc4)csc3C2=O)C(=O)N1` [Compound 2, (S)-3-(3-((4-(morpholinomethyl)benzyl)oxy)-6-oxo-4H-thieno[2,3-c]pyrrol-5(6H)-yl)piperidine-2,6-dione], for which, in test [1], the “GSPT1 % Degradation at 1 μM” value was “B (“B” represents a % degradation value of equal to or more than 25% and less than 50% (25%≤value<50%))”. For the same compound, the fold induction at 10 µM in test [5] was 1 to 2. Further, the inhibition at 10 µM in test [8] and in test [7] was less than 50% each time.

On to `O=C1CCC(N2Cc3c(CCc4ccc(CN5CCOCC5)cc4)csc3C2=O)C(=O)N1` (centres unmarked) [Compound 4], for which, in test [1], the “GSPT1 % Degradation at 1 μM” value was “B (“B” represents a % degradation value of equal to or more than 25% and less than 50% (25%≤value<50%))”. Besides, the percent degradation at 1 µM in test [2] lay within 25 to 50%. The same compound came in with a fold induction at 10 µM in test [5] of 2 to 3. In test [6], this compound came in with an IKAROS % degradation at 1 µM of 25 to 50%.

Take `O=C1CC[C@H](N2Cc3c(csc3COc3ccc(CN4CCCC4)cc3)C2=O)C(=O)N1` [Compound 13, (S)-3-(4-oxo-1-((4-(pyrrolidin-1-ylmethyl)phenoxy)methyl)-4H-thieno[3,4-c]pyrrol-5(6H)-yl)piperidine-2,6-dione]: the percent degradation at 1 µM in test [2] was 50 to 75%. For the same compound, in test [3], the viability at 10 µM was in the range of 50 to 75%. Also, the inhibition at 10 µM was 50 to 70% in test [4], more than 90% in test [8] and more than 90% in test [7]. Also, the fold induction at 10 µM in test [5] lay within 2 to 3. Also, the IKAROS % degradation at 1 µM in test [6] lay within 25 to 50%.

Consider `CCN(CC)Cc1ccc(OCc2scc3c2CN([C@H]2CCC(=O)NC2=O)C3=O)cc1` [Compound 14, (S)-3-(1-((4-((diethylamino)methyl)phenoxy)methyl)-4-oxo-4H-thieno[3,4-c]pyrrol-5(6H)-yl)piperidine-2,6-dione], for which the percent degradation at 1 µM in test [2] fell in the range of 50 to 75%. The compound further returned a viability at 10 µM in test [3] of 50 to 75%. For the same compound, the inhibition at 10 µM in test [4] is less than 50%; in test [8], 70 to 90%; in test [7], 70 to 90%. Besides, the fold induction at 10 µM in test [5] is 2 to 3. Besides, in test [6], the “IKAROS % Degradation at 10 μM” value is “B (“B” represents a % degradation value of equal to or more than 25% and less than 50% (25%≤value<50%))”.

With `CC1CN(Cc2ccc(OCc3scc4c3CN([C@H]3CCC(=O)NC3=O)C4=O)cc2)CC(C)O1` (stereo partly drawn) [Compound 17, (3S)-3-(1-((4-((2,6-dimethylmorpholino)methyl)phenoxy)methyl)-4-oxo-4H-thieno[3,4-c]pyrrol-5(6H)-yl)piperidine-2,6-dione], in test [2], the percent degradation at 1 µM was not below 75%. Also, in test [3], the viability at 10 µM lay within 50 to 75%. For the same compound, the inhibition at 10 µM in test [4] was less than 50%; in test [8] it was more than 90%; in test [7] it was 70 to 90%. This compound had a fold induction at 10 µM in test [5] of 1 to 2. Moreover, the IKAROS % degradation at 1 µM in test [6] was 50 to 75%.

The compound `CN(C)Cc1ccc(OCc2scc3c2CN([C@H]2CCC(=O)NC2=O)C3=O)cc1` [Compound 18, (S)-3-(1-((4-((dimethylamino)methyl)phenoxy)methyl)-4-oxo-4H-thieno[3,4-c]pyrrol-5(6H)-yl)piperidine-2,6-dione] registered a percent degradation at 1 µM in test [2] not below 75%. For the same compound, the viability at 10 µM in test [3] was less than 25%. The fold induction at 10 µM in test [5] was in the range of 2 to 3. Further, the values for the inhibition at 10 µM in test [8] and in test [7] were 70 to 90% and 50 to 70%, respectively. For the same compound, the “IKAROS % Degradation at 10 μM” value in test [6] is “C (“C” represents a % degradation value of equal to or more than 50% and less than 75% (50%≤value <75%))”.

Take `CC1COCC(C)N1Cc1ccc(OCc2scc3c2CN([C@H]2CCC(=O)NC2=O)C3=O)cc1` (stereo partly drawn) [Compound 19, (3S)-3-(1-((4-((3,5-dimethylmorpholino)methyl)phenoxy)methyl)-4-oxo-4H-thieno[3,4-c]pyrrol-5(6H)-yl)piperidine-2,6-dione]: in test [1], the “GSPT1 % Degradation at 1 μM” value is “C (“C” represents a % degradation value of equal to or more than 50% and less than 75% (50%≤value <75%))”. For the same compound, in test [2], the percent degradation at 1 µM is not below 75%. Moreover, the viability at 10 µM in test [3] fell in the range of 50 to 75%. Moreover, the inhibition at 10 µM was less than 50% in test [4], 70 to 90% in test [8] and 70 to 90% in test [7]. In test [5], this compound came in with a fold induction at 10 µM not above 1. This compound returned an IKAROS % degradation at 1 µM in test [6] of 50 to 75%.
